Results published in patent EP1770089A1, “Pyranodibenzofuran derivatives with antifungal and antibacterial activity” (priority 2005, dated 2007).
In brackets after ≈: the same amount, converted by molar mass.

Assays:
[1] = test system: M. tuberculosis INH resistant (2003/1762); assay: microbe, parasite or virus in culture; format: cell-based; conditions: Mycobacterium tuberculosis
[2] = test system: M. tuberculosis RIF resistant (2004/0499); assay: microbe, parasite or virus in culture; format: cell-based; conditions: Mycobacterium tuberculosis

Compound	MIC99 [1]	MIC99 [2]
CC1(C)C=Cc2c(ccc3oc4ccccc4c23)O1 [Compound 9, 3,3-dimethyl-3H-benzofuro[3,2-f][1]benzopyran]	5 µg/mL (≈ 20 µM)	5 µg/mL (≈ 20 µM)
CC1(C)CCc2c(ccc3oc4ccccc4c23)O1 [Compound 16, 1,2-dihydro-3,3-dimethyl-3H-benzofuro[3,2-f][1]benzopyran]	1 µg/mL (≈ 3.96 µM)	1 µg/mL (≈ 3.96 µM)
NNC(=O)c1ccncc1 [INH, isoniazid, reference compound]	5 µg/mL (≈ 36.5 µM)	0.1 µg/mL (≈ 0.729 µM)
